Data reported in patent publication US9795137B2, “Metalaxyl and prothioconazole cocrystals and methods of making and using” (Bayer CropScience LP, priority 2012, dated 2017).
Values after ≈ are worked out from the molar mass of the structure shown. Like-named read-outs stand apart in the source and are kept apart here.

How the values were obtained:
[1] = Water solubility of saturated solutions at pH 7.0, measured by HPLC; details: metalaxyl and prothioconazole as separate compounds (0.2 g each in one bottle), 10 mL pH 7.0 buffer, stirred about 12 hours at 20° C.±1° C.
Procedure: A saturated solution of metalaxyl and prothioconazole as separate compounds was prepared by the following procedure: 0.2 grams each of metalaxyl and prothioconazole were weighed and placed into a 0.5 oz bottle. 10 mL of pH 7.0 (Fisher #SB107-500) was added to the bottle. A magnetic stir bar was added to the bottle and the bottle was capped and shaken. The bottle was placed on a magnetic stirrer for about 12 hours at a temperature of 20° C.±1° C. stirring on low.
10 mL of pH 7.0 (Fisher #SB107-500) was added to the bottle. A magnetic stir bar was added to the bottle and the bottle was capped and shaken. The bottle was placed on a magnetic stirrer for about 12 hours in a room at 20° C.±1° C., stirring on low.

[2] = water solubility measurements at pH 7.0 in an aspect, cited from earlier work

| SMILES | solubility at pH 7.0 [1] | water solubility ([2]; at 25° C.) | water solubility ([2]; at 22° C.) |
| --- | --- | --- | --- |
| OC(Cc1ccccc1Cl)(Cn1nc[nH]c1=S)C1(Cl)CC1 (stereo not shown) [prothioconazole, 2-[2-(1-chlorocyclopropyl)-3-(2-chlorophenyl)-2-hydroxypropyl]-1,2-dihydro-3H-1,2,4-triazole-3-thione] | 0.0002% | 0.61 µg/mL (≈ 1.77 µM) |  |
| COCC(=O)N(c1c(C)cccc1C)C(C)C(=O)OC (racemic) [metalaxyl, N-(2,6-dimethylphenyl)-N-(methoxyacetyl)-DL-alanine methyl ester] | 0.62% |  | about 8.4 g/l |
